# Results from patent US20060134063A1, “Agents for proliferating pancreatic beta-cells of the islets of langerhans, agents for suppressing apoptosis of said cells, and screening of candidate compounds for these agents” (priority 2000, published 2006).
# Tests used:
# [1] = system: RINm5F cell lines, #1, #6, and #24, which stably express the Reg protein receptor; test: TUNEL apoptosis assay in RINm5F cell lines #1, #6, #24 expressing Reg protein receptor; format: cell-based, rat; conditions: 1,000 nM Reg protein; 20 ng/ml IL-6, 100 nM dexamethasone, 10 mM nicotinamide; 24 h
# Description: Rat insulinoma RINm5F cell lines, #1, #6, and #24, which stably express Reg protein receptor (Kobayashi, S. et al. (2000) J. Biol. Chem. 275, 10723-10726) were similarly cultured as in Example 4 and 1,000 nM Reg protein and HGF at varied concentrations, 0, 2.5, and 25 ng/ml were added thereto. Twenty-four hours after the addition of Reg protein/HGF, apoptosis was measured by TUNEL method using an Apoptosis Screening kit (Wako Pure Chemical Industries Ltd., Osaka, Japan) as described in Kobayashi, S. et al. (2000) J. Biol. Chem. 275, 10723-10726.
# [2] = system: 5'-flanking region of the rat Reg gene; test: Reg promoter/luciferase reporter assay in RINm5F cells; format: cell-based
# Description: A 2,303-bp fragment containing the 5′-flanking region of Reg gene was fused to the luciferase gene and transfected into RINm5F β-cells.
# Specifically, luciferase reporter gene constructs were generated as described in Miyashita, H. et al. (1994) Biochim. Biophys. Acta, 1219, 241-243. RINm5F cells were seeded at 1×10^5 cells/well in 24-well dish. After 48 h, 3.0 μg of test plasmid and 0.2 μg of pCMV-SPORT β-gal (Life Technologies, Inc.) were transfected by lipofection (Felgner, J. H. et al. (1994) J. Biol. Chem., 269, 2550-2561) using DMRIE-C™ (Life Technologies, Inc.). After 24 h, the medium of each dish was replaced with fresh medium containing stimulants and incubated further for 24 h. Cells were harvested in 1 ml of ice-cold phosphate-buffered saline (PBS), washed twice with PBS, and extracts were prepared in extraction buffer (0.1 M potassium phosphate, pH 6.8, 1 mM DTT). The protein concentration was determined using a Coomassie reagent kit (Pierce) and bovine serum albumin as a standard. Luciferase activity was determined by a chemiluminescence substrate using a Pica Gene™ Luminescence Kit (Toyo Ink Mfg. Co, Ltd., Tokyo, Japan). β-galactosidase activity was determined using Aurora™ GAL-XE (ICN).
# [3] = molecular target: T1, poly(ADP-ribose) synthetase/polymerase (PARP) (Rattus norvegicus, UniProt P27008); test: GMSA binding reaction of RINm5F nuclear extracts, effects of ADP-ribosylation; format: biochemical; conditions: 1 mM β-NAD+ in the GMSA binding reaction; read-out: concentrations of half maximal inhibition (quenching of the effect of β-NAD+ on the GMSA band)
# T1 construct: Nuclear extracts from RINm5F cells were prepared as described; endogenous in cells; host or cells: RINm5F (rat insulinoma) nuclear extract
# Description: The nuclear extract (10 μg) was incubated in a final volume of 20 μl of buffer containing 20 mM Tris-HCl (pH 7.9), 2 mM MgCl2, 50 mM NaCl, 2 mM EDTA, 10% glycerol, 0.1% Nonidet P-40, 1 mM DTT, 50 μg/ml bovine serum albumin and 1 μg of poly(dI-dC). After incubation for 10 min at room temperature, 2.5 pmol of double-stranded DNA, previously labeled by an exchange reaction using MEGALABEL (Takara Shuzo) and [γ-^32P]ATP (Amersham Pharmacia Biotech), were added and incubated for 30 min at room temperature, then the binding reactions were resolved on pre-run 6% acrylamide gel. […] After electrophoresis, DNA/proteins were electrophoretically transferred to a PolyScreen™ PVDF membrane (NEN).
# Poly(ADP-ribosyl)ation of nuclear proteins was performed in the same condition as GMSA in the presence of 62 nM [adenylate-^32P]NAD^+ (2×10^6 cpm, NEN). The ADP-ribosylated proteins were precipitated by the addition of 9 volume of acetone, separated by SDS-PAGE (12.5%) and autoradiographed.
# Reg gene = test: RT-PCR of Reg gene expression in RINm5F cells; format: cell-based, rat; conditions: 24 h with stimulants
# Description: The Reg gene expression was analyzed by RT-PCR. The cells were harvested after 24 h of culturing in a medium supplemented with stimulants, and total RNA was prepared using cesium trifluoroacetate as described in Takasawa, S. et al. (1993) J. Biol. Chem., 268, 26052-26054. RT-PCR was performed using primers corresponding to nucleotides 23 to 43 and 572 to 593 of rat Reg mRNA (Terazono, K. et al. (1988) J. Biol. Chem., 263, 2111-2114).
# [4] = nicotinamide added to IL-6/dexamethasone
# T1 sequence (P27008 whole entry): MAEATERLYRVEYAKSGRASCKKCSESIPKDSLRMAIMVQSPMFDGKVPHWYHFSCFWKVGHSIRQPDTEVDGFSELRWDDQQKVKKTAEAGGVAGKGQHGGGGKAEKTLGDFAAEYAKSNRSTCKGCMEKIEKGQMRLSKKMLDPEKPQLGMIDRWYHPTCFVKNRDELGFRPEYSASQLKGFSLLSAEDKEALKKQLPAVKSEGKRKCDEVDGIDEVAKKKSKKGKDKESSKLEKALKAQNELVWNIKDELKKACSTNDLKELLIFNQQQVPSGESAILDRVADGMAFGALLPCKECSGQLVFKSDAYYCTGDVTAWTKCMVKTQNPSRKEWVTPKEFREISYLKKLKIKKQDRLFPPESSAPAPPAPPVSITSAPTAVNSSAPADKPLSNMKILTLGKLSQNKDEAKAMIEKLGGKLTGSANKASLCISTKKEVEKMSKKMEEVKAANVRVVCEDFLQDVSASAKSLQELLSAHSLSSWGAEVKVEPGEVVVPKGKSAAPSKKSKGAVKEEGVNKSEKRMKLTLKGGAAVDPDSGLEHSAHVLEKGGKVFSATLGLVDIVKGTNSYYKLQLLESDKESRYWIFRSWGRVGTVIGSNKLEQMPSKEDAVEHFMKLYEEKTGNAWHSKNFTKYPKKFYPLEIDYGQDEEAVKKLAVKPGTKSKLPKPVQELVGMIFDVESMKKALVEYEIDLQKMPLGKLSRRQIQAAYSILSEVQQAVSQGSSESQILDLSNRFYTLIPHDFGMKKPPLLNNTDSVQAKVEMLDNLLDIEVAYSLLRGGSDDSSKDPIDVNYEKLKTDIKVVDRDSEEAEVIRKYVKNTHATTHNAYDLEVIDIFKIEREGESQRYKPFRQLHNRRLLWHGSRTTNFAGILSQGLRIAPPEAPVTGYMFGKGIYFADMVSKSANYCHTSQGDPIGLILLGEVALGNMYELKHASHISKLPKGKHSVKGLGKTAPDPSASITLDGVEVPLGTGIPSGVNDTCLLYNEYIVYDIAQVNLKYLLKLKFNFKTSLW
smiles,measurement,setting,value
NC(=O)c1cccnc1 [nicotinamide],apoptosis induced by Reg protein (TUNEL),[1],did not
same,luciferase activity (result in words),"[2]; 2,303-bp Reg 5'-flanking fragment, 24 h stimulation",ineffective
same,"enhancement of IL-6/dexamethasone-induced transcription of Reg gene, ""-70"" construct",[2]; [4],abolished
same,"enhancement of IL-6/dexamethasone-induced transcription of Reg gene, -2,303 to -81 deletions",[2]; [4],the enhancement was observed
same,IC50,[3],250 µM
same,Reg gene expression (Reg mRNA),Reg gene,no effect on Reg expression
